The record followed here is patent EP1096022B1, “Immuno-stimulating polysaccharide substance from Phellinus spp. strain and use thereof” (KOREA INSTITUTE OF SCIENCE AND TECHNOLOGY, priority 1999, dated 2001).

Each structure is given as a SMILES string.

The subject of data set [1] is B16F10 cutaneous cancer cells. Kind of data set: Viability of mice implanted intraperitoneally with B16F10 cells, co-administration with chemotherapeutics, 60 days. The class given is in vivo, mouse. The note with it: for Proportion (%): untreated = 100.
Excerpt: (§1) A homogeneous plantation test system of B 16F 10 cutaneous cancer cell was utilized for the measurement of the anticancer activity upon co-administration of the polysaccharide substance and adriamycin. The cutaneous cancer cells were implanted in the peritoneal cavity of mice. Adriamycin was peritoneally administered to the mice for 12 days after tumor implantation while the polysaccharide substance was peritoneally administered from a week before the implantation to 12 days after the implantation. For 60 days, the viability of the mice was recorded everyday. Adriamycin was used at such low amounts as not to damage the mice.
The cutaneous cancer cells were implanted in the peritoneal cavity of mice. […] For 60 days, the viability of the mice was recorded everyday. Mitomycin C was used at such low amounts as not to damage the mice.
The cutaneous cancer cells were implanted in the peritoneal cavity of mice. […] For 60 days, the viability of the mice was recorded everyday. Cisplastin was used at such low amounts as not to damage the mice.
as §1, with “B16F10” for “B 16F 10”, “5-fluoro uracil, as in the above experiments.” for “adriamycin.”, “5-fluoro uracil” for “Adriamycin”

For data set [2], the system named is NCl-H23 lung cancer cells. Kind of data set: Human lung cancer cells implanted subcutaneously in nude mice, tumor size and weight. The class given is in vivo. Here is the method: The activity of the polysaccharide substance against human cancer was assayed using NCl-H23, a lung cancer cell line. Nude mice were subcutaneously implanted with NCl-H23 lung cancer cells. The polysaccharide substance and adriamycin were peritoneally administered to the nude mice for 12 days after cancer cell implantation. […] Because the nude mice were devoid of T-cells, their immunological competency was generally attributed to the activity of natural killer cells or macrophage cells. Therefore, the immunological enhancement obtained when administering the polysaccharide substance was meditated through these two type cells.

Data set [3] concerns B16F10 cutaneous cancer cells. As to the kind of experiment: Lung metastasis after tail-vein implantation of B16F10 cells, spots counted on the 14th day. It is filed as in vivo, C57BL/6 mice. The source says: In order to test the polysaccharide substance for the prevention of cancer metastasis, B16F10 cutaneous cancer cells were implanted in the tail veins of C57BL/6 mice. On the 14th day after implantation, the lungs were isolated from the mice to investigate whether or to what extent cancer metastasis occurred. Adriamycin was peritoneally administered to the mice for 12 days after tumor implantation while the polysaccharide substance was peritoneally administered from a week before the implantation to 12 days after the implantation. […]

In data set [4] the test system is B16F10 mouse cutaneous cancer cells. As to the kind of experiment: Direct cytotoxicity, sulforhodamin B method.
Data set [5] concerns NCl-H23 human lung cancer cells. Kind of data set: Direct cytotoxicity, sulforhodamin B method.
[6] abbreviates: 0.3 µg/mL, 2nd day after treatment.

Turning to `COc1cccc2c1C(=O)c1c(O)c3c(c(O)c1C2=O)C[C@@](O)(C(=O)CO)C[C@@H]3O[C@H]1C[C@H](N)[C@H](O)[C@H](C)O1` [Adriamycin], the “Avg. Viability” value in data set [1] (adriamycin 0.1 mg/kg alone) came out at 35.4 days; in data set [1] (adriamycin 0.3 mg/kg alone), 40.1 days. The “Nos. of viable mice on the 60th day” value in data set [1] (adriamycin 0.1 mg/kg alone) is reported as 0/10; in data set [1] (adriamycin 0.3 mg/kg alone) it was 2/10. For the same compound, the results for the “Proportion (%)” value in data set [1] (adriamycin 0.1 mg/kg alone) and in data set [1] (adriamycin 0.3 mg/kg alone) were 195.6% and 240.9%, respectively. Also, the Cell size was found to be 12 mm^3 in data set [2] (14th day, 1mg/kg peritoneally for 12 days); 27 mm^3 in data set [2] (17th day, 1mg/kg); 34 mm^3 in data set [2] (18th day, 1mg/kg); 33 mm^3 in data set [2] (19th day, 1mg/kg). Further, the “Final Cancer Weight” value in data set [2] (19th day, 1mg/kg) worked out at 95. In addition, the “Nos. of Spots” value in data set [3] (adriamycin 1mg/kg alone) was determined as 197; in data set [3] (adriamycin 3mg/kg alone), 172. Also, the “cell quantity (untreated = 100 %)” value in data set [4] (setting [6]) was 56%; in data set [4] (1 µg/mL, 2nd day), 29%; in data set [4] (3 µg/mL, 2nd day), 9%; in data set [4] (10 µg/mL, 2nd day) it was -10%; in data set [4] (30 µg/mL, 2nd day), -10%; in data set [5] (setting [6]), 100%. The “cell quantity (untreated = 100 %)” value in data set [5] (1 µg/mL, 2nd day) is 71%; in data set [5] (3 µg/mL, 2nd day), 39%; in data set [5] (10 µg/mL, 2nd day) it was 7%; in data set [5] (30 µg/mL, 2nd day) it was -1%. In addition, the “cytotoxicity to cancer cells” value in data set [4] (overall statement) and in data set [5] (overall statement) was “potent cytotoxicity” in each case.
For the compound `CO[C@@]12[C@H](COC(N)=O)C3=C(C(=O)C(C)=C(N)C3=O)N1C[C@@H]1N[C@@H]12` [M.C, Mitomycin C], the “Nos. of viable mice on the 60th day” value in data set [1] (mitomycin C 0.2 mg/kg alone) is on record as 0/10. Further, in data set [1] (mitomycin C 0.6 mg/kg alone), the “Avg. Viability” value stood at 38.0 days and the “Nos. of viable mice on the 60th day” value was 1/10.
On to `O=c1[nH]cc(F)c(=O)[nH]1` [5-FU, 5-fluoro uracil], for which the “Avg. Viability” value was 33.0 days in data set [1] (5-fluorouracil 1 mg/kg alone); 34.2 days in data set [1] (5-fluorouracil 1 mg/kg alone, listed as 5-Fluorouracil); 40.5 days in data set [1] (5-fluorouracil 3 mg/kg alone); 40.2 days in data set [1] (5-fluorouracil 3 mg/kg alone, listed as 5-fluorouracil). The results for the “Nos. of viable mice on the 60th day” value in data set [1] (5-fluorouracil 1 mg/kg alone) and in data set [1] (5-fluorouracil 3 mg/kg alone) were 0/10 and 2/10, respectively. Also, the “Proportion (%)” value in data set [1] (5-fluorouracil 1 mg/kg alone) was determined as 187.8%; in data set [1] (5-fluorouracil 3 mg/kg alone), 222%.
Regarding `N.N.[Cl][Pt][Cl]` [C.P, Cisplatin], in data set [1] (cisplatin 0.5 mg/kg alone), the “Avg. Viability” value was determined as 33.0 days, the “Nos. of viable mice on the 60th day” value was 0/10 and the “Proportion (%)” value is 182.3%. Further, the “Avg. Viability” value in data set [1] (cisplatin 0.5 mg/kg alone, listed as Cisplatin) was 33 days. In data set [1] (cisplatin 1.5 mg/kg alone), the “Avg. Viability” value was determined as 40.5 days, the “Nos. of viable mice on the 60th day” value is 2/10 and the “Proportion (%)” value is on record as 223.8%.
